# Assay results from patent US20220380341A1, “INHIBITORS OF HIV-1 NEF FOR THE TREATMENT OF HIV DISEASE” (priority 2018, published 2022).
# pKd: −log10 of the molar value. Read-outs that look alike come from different tables or passages of the source.
# Legend:
# [1] = target: HIV-1 NefNL4-3 (Human immunodeficiency virus type 1 group M subtype B, UniProt P03406, A33V/T15A/T51N/V11I); assay: Surface plasmon resonance binding to recombinant full-length Nef (NL4-3); details: for RU30/RUNef (extent of binding): response units at 30 μM relative to Nef immobilized on the SPR chip
# [2] = test system: TZM-bl cell line; assay type: cell-based; details: 1 μM
# Summary of the method: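 Nef-dependent infectivity in TZM-bl cells: HIV-1NL4-3 infection with 1 μM compound, luciferase read at 48 h, normalized against DMSO wild-type and Nef-defective controls. Compound cytotoxicity in uninfected cells measured by Cell Titer Blue.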
# [3] = test system: HIV-1NL4-3; assay: HIV-1 infectivity assay in TZM-bl reporter cell line (LTR-luciferase, 48 h); assay type: cell-based; details: for inhibition at 1 µM: Human immunodeficiency virus 1, TZM-bl
# Summary of the method: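 Compounds were tested at 1 μM in TZM-bl cells infected with HIV-1NL4-3. Infectivity was read as luciferase signal 48 h after infection and expressed as percent inhibition, normalized between DMSO-treated wild-type infection (0%) and DMSO-treated Nef-defective HIV-1 infection (100% of the Nef-dependent effect).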
# [4] = KD, M, Table 4, SPR fit 1:1 Langmuir, KD = koff/kon
# [5] = Table 4, 1:1 Langmuir fit, T = 1/koff
# [6] = 1.0 μM, TZM-bl reporter cell line, Table 4, read-out: % Infectivity Inhibition
# [7] = 48 h, Table 1, TZM-bl cells, 1 μM, 48 h, 100% = Nef-defective HIV-1, read-out: HIV-1 Infectivity % Inhibition Norm. to Δ-Nef @ 1 μM
# [8] = KD, M, Table 4, SPR fit 2-step induced fit, KD = koff/kon × koff2/(koff2 + kon2)
# [9] = Nef NL4-3 Binding, SPR 2-state fitting KD, Table 1, 2-step induced-fit model
# [10] = Table 4, 2-step induced fit, T = 1/koff2
# [11] = read-out: Nef NL4-3 Binding, SPR 1:1 or 2-site fitting KD2, Table 1, 2-site fit, second component
# [12] = Table 1, uninfected TZM-bl cells, Cell Titer Blue
# [13] = Table 1, TZM-bl cells, 1 μM, 48 h, 100% = Nef-defective HIV-1
# [14] = Table 1, 1:1 Langmuir fit where the KD2 cell says '1 to 1 fitting', else 2-site fit
Molecule,pKd [1],"pKd [1, 4]","T, minutes (residence time) [1, 5]",RU30/RUNef (extent of binding) [1],% Cell Viability ([2]; human) [%],Percent Viability @ 1 μM (TZM-bl cells) ([2]; human) [%],"inhibition at 1 µM [3, 6] [%]","inhibition at 1 µM [3, 7] [%]","pKd [1, 8]","pKd [1, 9]","T, minutes (residence time) [1, 10]","pKd [1, 11]","pKd ([1]; Table 1, 1:1 Langmuir fit where the KD2 cell says '1 to 1 fitting', else 2-site fit, read-out: Nef NL4-3 Binding, SPR 1:1 or 2-site fitting KD1)","Percent Viability @ 1 μM (TZM-bl cells) [2, 12] [%]","HIV-1 Infectivity % Inhibition Norm. to Δ-Nef @ 1 μM [3, 13] [%]","Nef NL4-3 Binding, SPR 1:1 or 2-site fitting KD1 [1, 14]"
"Oc1c(CCc2ccccn2)c(-c2ccc(C(F)(F)F)cn2)nn1-c1nc2ccccc2[nH]1 [Compound I-146, 1-(1H-1,3-benzodiazol-2-yl)-4-[2-(pyridin-2-yl)ethyl]-3-[5-(trifluoromethyl)pyridin-2-yl]-1H-pyrazol-5-ol]",5.78,5.78,3.67E + 00 minutes,6.42E- 04,98.5,98.5,5.7,5.7,–,–,–,–,–,–,–,–
"O=C(c1cnccn1)N1CCC(Cc2nn(-c3nc4ccccc4[nH]3)c(O)c2CCc2ccc(F)cc2)CC1 [Compound I-767, 1-(1H-1,3-benzodiazol-2-yl)-4-[2-(4-fluorophenyl)ethyl]-3-{[1-(pyrazine-2-carbonyl)piperidin-4-yl]methyl}-1H-pyrazol-5-ol]",6.37,–,–,–,–,97.6,–,18.9,–,–,–,–,–,–,–,–
"Oc1c(CCC2CCNCC2)c(C2CC2)nn1-c1nc2cc(Cl)ccc2[nH]1 [Compound I-554, 1-(5-chloro-1H-1,3-benzodiazol-2-yl)-3-cyclopropyl-4-[2-(piperidin-4-yl)ethyl]-1H-pyrazol-5-ol]",7.25,–,–,3.65E- 02,95.0,95.0,12.2,12.2,11.50,11.50,3.33E + 06 minutes,5.67,–,–,–,–
"Oc1c(CCC2CCNCC2)c(-c2ccc(C(F)(F)F)cn2)nn1-c1nc2cc(Br)ccc2[nH]1 [Compound I-555, 1-(5-bromo-1H-1,3-benzodiazol-2-y1)-4-[2-(piperidin-4-yl)ethyl]-3-[5-(trifluoromethyl)pyridin-2-yl]-1H-pyrazol-5-ol]",–,–,–,–,–,–,–,–,–,–,–,–,6.06,104.6,−118.0,–
"Nc1ccc(S(=O)(=O)N2CCC(c3nn(-c4nc5ccccc5[nH]4)c(O)c3CCc3ccc(F)cc3)CC2)cc1 [Compound I-749, 3-[1-(4-aminobenzenesulfonyl)piperidin-4-yl]-1-(1H-1,3-benzodiazol-2-yl)-4-[2-(4-fluorophenyl)ethyl]-1H-pyrazol-5-ol]",8.90,–,–,–,–,78.7,–,64.1,–,6.40,–,6.12,–,–,–,–
CS(=O)(=O)N1CCC(CCc2c(-c3ccc(C(F)(F)F)cn3)nn(-c3nc4ccccc4[nH]3)c2O)CC1 [Compound I-716],5.71,–,–,5.13E- 03,97.1,97.1,22.8,22.8,5.36,5.36,3.22E + 00 minutes,–,–,–,–,–
"Cc1ccc(-c2nn(-c3nc4ccccc4[nH]3)c(O)c2CCc2ccc(F)cc2)cn1 [Compound I-140, 1-(1H-1,3-benzodiazol-2-yl)-4-[2-(4-fluorophenyl)ethyl]-3-(6-methylpyridin-3-yl)-1H-pyrazol-5-ol]",6.04,–,–,–,–,98.3,–,57.3,–,–,–,–,–,–,–,–
"Oc1c(CCc2ccc(F)cc2)c(CC2CCN(Cc3ccncc3)CC2)nn1-c1nc2ccccc2[nH]1 [Compound I-809, 1-(1H-1,3-benzodiazol-2-yl)-4-[2-(4-fluorophenyl)ethyl]-3-({1-[(pyridin-4-yl)methyl]piperidin-4-yl}methyl)-1H-pyrazol-5-ol]",5.56,–,–,–,–,97.9,–,14.1,–,–,–,–,–,–,–,–
"CC(C)OC(=O)N1CCC(c2nn(-c3nc4ccccc4[nH]3)c(O)c2CC2CCOCC2)CC1 [Compound I-725, propan-2-yl 4-[1-(1H-1,3-benzodiazol-2-yl)-5-hydroxy-4-[(oxan-4-yl)methyl]-1H-pyrazol-3-yl]piperidine-1-carboxylate]",5.48,5.48,4.73E + 00 minutes,3.88E- 03,95.6,95.6,37.4,37.4,–,–,–,–,–,–,–,–
"Oc1c(CC2CCNCC2)c(-c2ccc(C(F)(F)F)cc2)nn1-c1nc2ccccc2[nH]1 [Compound I-504, 1-(1H-1,3-benzodiazol-2-yl)-4-[(piperidin-4-yl)methyl]-3-[4-(trifluoromethyl)phenyl]-1H-pyrazol-5-ol]",4.97,–,–,–,–,101.3,–,-43.7,–,–,–,–,–,–,–,–
"Oc1c(CC2CCOCC2)c(C2CC(F)(F)C2)nn1-c1nc2ccccc2[nH]1 [Compound I-176, 1-(1H-1,3-benzodiazol-2-yl)-3-(3,3-difluorocyclobutyl)-4-[(oxan-4-yl)methyl]-1H-pyrazol-5-ol]",–,5.65,5.08E + 00 minutes,1.52E- 03,98.4,–,0,–,–,–,–,–,–,–,–,–
"CS(=O)(=O)c1cccc(-c2nn(-c3nc4cccnc4[nH]3)c(O)c2CCC2CCOCC2)c1 [Compound I-305, 1-{3H-imidazo[4,5-b]pyridin-2-yl}-3-(3-methanesulfonylphenyl)-4-[2-(oxan-4-yl)ethyl]-1H-pyrazol-5-ol]",6.13,6.13,1.13E + 01 minutes,2.13E- 03,96.8,96.8,59.3,59.3,–,–,–,–,–,–,–,–
"Oc1c(CCC2CCN(c3ncc(F)cn3)CC2)c(C2CC2)nn1-c1nc2cc(Cl)ccc2[nH]1 [Compound I-901, 1-(5-chloro-1H-1,3-benzodiazol-2-yl)-3-cyclopropyl-4-{2-[1-(5-fluoropyrimidin-2-yl)piperidin-4-yl]ethyl}-1H-pyrazol-5-ol]",6.32,–,–,2.23E- 03,100,105.0,14.3,14.3,10.82,10.82,2.46E + 05 minutes,–,–,–,–,–
"O=C(OCc1ccccc1)N1CCC(c2nn(-c3nc4ccncc4[nH]3)c(O)c2CCc2ccc(F)cc2)CC1 [Compound I-310, benzyl 4-{4-[2-(4-fluorophenyl)ethyl]-5-hydroxy-1-{3H-imidazo[4,5-c]pyridin-2-yl}-1H-pyrazol-3-yl}piperidine-1-carboxylate]",7.30,7.30,3.56E + 02 minutes,2.36E- 03,100,105.6,36.6,36.6,–,–,–,–,–,–,–,–
"2-{4-[1-(1H-1,3-benzodiazol-2-yl)-4-[2-(4-fluorophenyl)ethyl]-5-hydroxy-1H-pyrazol-3-yl]piperidine-1-carbonyl}benzene-1,3,5-triol [Compound I-729]",–,–,–,–,–,–,–,–,–,–,–,–,–,102.4,57.2,No Interaction
"Oc1c(CC2CCOCC2)c(-c2ccc(F)cc2F)nn1-c1nc2ccccc2[nH]1 [Compound I-187, 1-(1H-1,3-benzodiazol-2-yl)-3-(2,4-difluorophenyl)-4-[(oxan-4-yl)methyl]-1H-pyrazol-5-ol]",–,–,–,8.62E- 03,100,–,20.2,–,10.51,–,1.02E + 06 minutes,–,–,–,–,–
"CC(=O)N1CCC(CCc2c(-c3ccc(C(F)(F)F)cc3)nn(-c3nc4ccccc4[nH]3)c2O)CC1 [Compound I-719, 1-(4-{2-[1-(1H-1,3-benzodiazol-2-yl)-5-hydroxy-3-[4-(trifluoromethyl)phenyl]-1H-pyrazol-4-yl]ethyl}piperidin-1-yl)ethan-1-one]",5.66,–,–,9.42E- 03,98.0,98.0,0,-8.3,6.35,6.35,4.44E + 01 minutes,–,–,–,–,–
"O=C(c1cnccn1)N1CCCC(c2nn(-c3nc4ccccc4[nH]3)c(O)c2CCc2ccc(F)cc2)C1 (stereo not drawn) [Compound I-756, 1-(1H-1,3-benzodiazol-2-yl)-4-[2-(4-fluorophenyl)ethyl]-3-[1-(pyrazine-2-carbonyl)piperidin-3-yl]-1H-pyrazol-5-ol]",–,–,–,–,–,101.9,–,34.3,–,–,–,–,–,–,–,No Interaction
"O=C(c1cnccn1)N1CCC(c2nn(-c3nc4ccccc4[nH]3)c(O)c2CCc2ccc(F)cc2)CC1 [Compound I-728, 1-(1H-1,3-benzodiazol-2-yl)-4-[2-(4-fluorophenyl)ethyl]-3-[1-(pyrazine-2-carbonyl)piperidin-4-yl]-1H-pyrazol-5-ol]",6.85,–,–,–,–,99.1,–,53.7,–,–,–,–,–,–,–,–
